Assay: molar heat capacity at constant pressure
Conditions: 101.33 kPa

OC[C@H](O)C(O)[C@@H](O)CO [L-(-)-arabitol]
molar heat capacity at constant pressure [J/K/mol]
Conditions	Small sample (50 mg) DSC	relaxation calorimetry
1 K, Crystal	–	0.0009071
1.925 K, Crystal	–	0.00486
2 K, Crystal	–	0.00537
2.126 K, Crystal	–	0.006333
2.35 K, Crystal	–	0.008531
2.603 K, Crystal	–	0.01139
2.89 K, Crystal	–	0.01551
3 K, Crystal	–	0.01737
3.204 K, Crystal	–	0.02118
3.551 K, Crystal	–	0.02864
3.938 K, Crystal	–	0.03916
4 K, Crystal	–	0.04172
4.366 K, Crystal	–	0.05484
4.845 K, Crystal	–	0.07705
5 K, Crystal	–	0.08452
5.374 K, Crystal	–	0.1069
5.962 K, Crystal	–	0.1505
6 K, Crystal	–	0.1535
6.615 K, Crystal	–	0.2138
7 K, Crystal	–	0.26
7.345 K, Crystal	–	0.3087
8 K, Crystal	–	0.4176
8.151 K, Crystal	–	0.4472
9 K, Crystal	–	0.6348
9.046 K, Crystal	–	0.6445
10 K, Crystal	–	0.9169
10.12 K, Crystal	–	0.9515
11.21 K, Crystal	–	1.346
12.43 K, Crystal	–	1.885
13.79 K, Crystal	–	2.589
15 K, Crystal	–	3.316
15.3 K, Crystal	–	3.507
16.99 K, Crystal	–	4.683
18.86 K, Crystal	–	6.145
20 K, Crystal	–	7.063
21 K, Crystal	–	7.93
23.34 K, Crystal	–	10
25 K, Crystal	–	11.59
25.89 K, Crystal	–	12.41
28.74 K, Crystal	–	15.2
30 K, Crystal	–	16.48
31.91 K, Crystal	–	18.4
35 K, Crystal	–	21.5
35.44 K, Crystal	–	21.96
39.34 K, Crystal	–	25.96
40 K, Crystal	–	26.56
43.67 K, Crystal	–	30.28
45 K, Crystal	–	31.57
48.47 K, Crystal	–	34.84
50 K, Crystal	–	36.42
53.79 K, Crystal	–	39.93
55 K, Crystal	–	41.06
59.71 K, Crystal	–	45.44
60 K, Crystal	–	45.6
65 K, Crystal	–	50.22
66.3 K, Crystal	–	51.38
70 K, Crystal	–	54.55
73.59 K, Crystal	–	57.52
75 K, Crystal	–	58.73
80 K, Crystal	–	62.81
81.71 K, Crystal	–	64.34
85 K, Crystal	–	66.8
90 K, Crystal	–	70.7
90.67 K, Crystal	–	71.56
95 K, Crystal	–	74.53
100 K, Crystal	–	78.28
100.62 K, Crystal	–	78.32
110 K, Crystal	–	85.55
110.77 K, Crystal	–	85.86
120 K, Crystal	–	92.52
120.75 K, Crystal	–	93.29
130 K, Crystal	–	99.22
130.83 K, Crystal	–	99.89
140 K, Crystal	–	105.69
141 K, Crystal	–	106.35
150 K, Crystal	–	111.98
151.08 K, Crystal	–	112.59
160 K, Crystal	–	118.13
161.19 K, Crystal	–	118.71
170 K, Crystal	–	124.19
171.26 K, Crystal	–	124.81
180 K, Crystal	–	130.18
181.32 K, Crystal	–	131.15
188.15 K, Crystal	129.04	–
189.15 K, Crystal	130.57	–
190 K, Crystal	–	136.16
190.15 K, Crystal	131.98	–
191.15 K, Crystal	132.97	–
191.4 K, Crystal	–	137.23
192.15 K, Crystal	133.65	–
193.15 K, Crystal	134.27	–
194.15 K, Crystal	135.12	–
195.15 K, Crystal	135.91	–
196.15 K, Crystal	136.66	–
197.15 K, Crystal	137.42	–
198.15 K, Crystal	138.16	–
199.15 K, Crystal	138.8	–
200 K, Crystal	–	142.15
200.15 K, Crystal	139.49	–
201.15 K, Crystal	140.3	–
201.57 K, Crystal	–	142.67
202.15 K, Crystal	141.06	–
203.15 K, Crystal	141.64	–
204.15 K, Crystal	142.39	–
205.15 K, Crystal	143.02	–
206.15 K, Crystal	143.74	–
207.15 K, Crystal	144.43	–
208.15 K, Crystal	145.06	–
209.15 K, Crystal	145.72	–
210 K, Crystal	–	148.19
210.15 K, Crystal	146.38	–
211.15 K, Crystal	147.05	–
211.68 K, Crystal	–	149.03
212.15 K, Crystal	147.72	–
213.15 K, Crystal	148.33	–
214.15 K, Crystal	149.06	–
215.15 K, Crystal	149.6	–
216.15 K, Crystal	150.38	–
217.15 K, Crystal	151.13	–
218.15 K, Crystal	152.05	–
219.15 K, Crystal	152.76	–
220 K, Crystal	–	154.3
220.15 K, Crystal	153.39	–
221.15 K, Crystal	153.99	–
221.77 K, Crystal	–	155.91
222.15 K, Crystal	154.72	–
223.15 K, Crystal	155.35	–
224.15 K, Crystal	155.94	–
225.15 K, Crystal	156.64	–
226.15 K, Crystal	157.32	–
227.15 K, Crystal	157.87	–
228.15 K, Crystal	158.58	–
229.15 K, Crystal	159.08	–
230 K, Crystal	–	160.49
230.15 K, Crystal	159.71	–
231.15 K, Crystal	160.4	–
231.87 K, Crystal	–	161.72
232.15 K, Crystal	160.98	–
233.15 K, Crystal	161.67	–
234.15 K, Crystal	162.2	–
235.15 K, Crystal	162.87	–
236.15 K, Crystal	163.51	–
237.15 K, Crystal	164.14	–
238.15 K, Crystal	164.86	–
239.15 K, Crystal	165.4	–
240 K, Crystal	–	166.8
240.15 K, Crystal	166.04	–
241.15 K, Crystal	166.73	–
241.87 K, Crystal	–	168.05
242.15 K, Crystal	167.44	–
243.15 K, Crystal	168.16	–
244.15 K, Crystal	168.75	–
245.15 K, Crystal	169.35	–
246.15 K, Crystal	169.88	–
247.15 K, Crystal	170.55	–
248.15 K, Crystal	171.06	–
249.15 K, Crystal	171.85	–
250 K, Crystal	–	173.24
250.15 K, Crystal	172.59	–
251.15 K, Crystal	173.21	–
251.96 K, Crystal	–	174.6
252.15 K, Crystal	173.86	–
253.15 K, Crystal	174.57	–
254.15 K, Crystal	175.18	–
255.15 K, Crystal	176.03	–
256.15 K, Crystal	176.9	–
257.15 K, Crystal	177.61	–
258.15 K, Crystal	178.4	–
259.15 K, Crystal	179.26	–
260 K, Crystal	–	179.82
260.15 K, Crystal	180.04	–
261.15 K, Crystal	180.97	–
262.07 K, Crystal	–	180.97
262.15 K, Crystal	181.78	–
263.15 K, Crystal	182.59	–
264.15 K, Crystal	183.52	–
265.15 K, Crystal	184.23	–
266.15 K, Crystal	184.83	–
267.15 K, Crystal	185.69	–
268.15 K, Crystal	186.57	–
269.15 K, Crystal	187.58	–
270 K, Crystal	–	186.56
270.15 K, Crystal	188.37	–
271.15 K, Crystal	189.06	–
272.13 K, Crystal	–	188.16
272.15 K, Crystal	189.78	–
273.15 K, Crystal	190.61	188.71
274.15 K, Crystal	191.19	–
275.15 K, Crystal	191.83	–
276.15 K, Crystal	192.48	–
277.15 K, Crystal	193.16	–
278.15 K, Crystal	193.84	–
279.15 K, Crystal	194.6	–
280 K, Crystal	–	193.46
280.15 K, Crystal	195.16	–
281.15 K, Crystal	195.85	–
282.15 K, Crystal	196.47	–
282.16 K, Crystal	–	194.74
283.15 K, Crystal	197.03	–
284.15 K, Crystal	197.67	–
285.15 K, Crystal	198.35	–
286.15 K, Crystal	198.9	–
287.15 K, Crystal	199.37	–
288.15 K, Crystal	200.05	–
289.15 K, Crystal	200.75	–
290 K, Crystal	–	200.53
290.15 K, Crystal	201.49	–
291.15 K, Crystal	202.11	–
292.15 K, Crystal	202.64	–
292.27 K, Crystal	–	201.73
293.15 K, Crystal	203.3	–
294.15 K, Crystal	203.94	–
295.15 K, Crystal	204.77	–
296.15 K, Crystal	205.37	–
297.15 K, Crystal	206.12	–
298.15 K, Crystal	206.77	206.44
299.15 K, Crystal	207.42	–
300 K, Crystal	–	207.8
300.15 K, Crystal	208.27	–
301.15 K, Crystal	209.11	–
302.15 K, Crystal	209.85	–
302.3 K, Crystal	–	209.95
303.15 K, Crystal	210.71	–
304.15 K, Crystal	211.4	–
305 K, Crystal	212.36	–
305.15 K, Crystal	212.38	–
306.15 K, Crystal	213.15	–
307.15 K, Crystal	214.11	–
308.15 K, Crystal	215.16	–
309.15 K, Crystal	216.11	–
310 K, Crystal	217.12	–
310.15 K, Crystal	217.05	–
311.15 K, Crystal	218.22	–
312.15 K, Crystal	219.18	–
313.15 K, Crystal	220.1	–
314.15 K, Crystal	221.04	–
315 K, Crystal	221.96	–
315.15 K, Crystal	222.13	–
316.15 K, Crystal	223.18	–
317.15 K, Crystal	224.21	–
318.15 K, Crystal	225.16	–
319.15 K, Crystal	226.14	–
320 K, Crystal	226.85	–
320.15 K, Crystal	227.12	–
321.15 K, Crystal	228.27	–
322.15 K, Crystal	229.22	–
323.15 K, Crystal	230.47	–
324.15 K, Crystal	231.33	–
325 K, Crystal	231.9	–
325.15 K, Crystal	232.46	–
326.15 K, Crystal	233.49	–
327.15 K, Crystal	234.58	–
328.15 K, Crystal	235.6	–
329.15 K, Crystal	236.61	–
330 K, Crystal	237.4	–
330.15 K, Crystal	237.74	–
331.15 K, Crystal	238.74	–
332.15 K, Crystal	239.92	–
333.15 K, Crystal	241.19	–
335 K, Crystal	243.8	–
340 K, Crystal	251.69	–
345 K, Crystal	261.85	–
387.05 K, Liquid	440.32	–
387.15 K, Liquid	440.19	–
388.15 K, Liquid	440.32	–
389.15 K, Liquid	440.39	–
390 K, Liquid	440.74	–
390.15 K, Liquid	440.65	–
391.15 K, Liquid	440.67	–
392.15 K, Liquid	440.92	–
393.15 K, Liquid	441.37	–
394.15 K, Liquid	441.72	–
395 K, Liquid	442.06	–
395.15 K, Liquid	441.9	–
396.15 K, Liquid	442.46	–
397.15 K, Liquid	443.18	–
398.15 K, Liquid	443.38	–
399.15 K, Liquid	443.7	–
400 K, Liquid	443.76	–
400.15 K, Liquid	444.18	–
401.15 K, Liquid	444.55	–
402.15 K, Liquid	444.8	–
403.15 K, Liquid	445.3	–
404.15 K, Liquid	445.48	–
405 K, Liquid	445.85	–
405.15 K, Liquid	445.82	–
406.15 K, Liquid	446.12	–
407.15 K, Liquid	446.57	–
408.15 K, Liquid	447.22	–
409.15 K, Liquid	447.57	–
410 K, Liquid	448.32	–
410.15 K, Liquid	448.06	–
411.15 K, Liquid	448.75	–
412.15 K, Liquid	449.48	–
413.15 K, Liquid	450.17	–
414.15 K, Liquid	450.82	–
415 K, Liquid	451.18	–
415.15 K, Liquid	451.25	–
416.15 K, Liquid	451.74	–
417.15 K, Liquid	452.58	–
418.15 K, Liquid	453.6	–

— the NIST ThermoML archive (doi:10.1016/j.jct.2017.08.004)
